Test results published in patent US4261989A, “Geldanamycin derivatives and antitumor drug” (Kaken Chemical Co. Ltd., priority 1979, dated 1981).

Columns and labels:
cancer cell W-2K-11 = assay: Growth inhibition of cancer cell W-2K-11 (percent inhibition of cell multiplication, Table 2); format: cell-based, mouse; conditions: Mus musculus, 48 hours after addition of sample, W-2K-11 cells; for inhibition at 1 µg/mL: concentration 1 μg/ml
Procedure: Cancer cell W-2K-11 was obtained by transforming fibroblast C3H-2K clone derived from kidney of mouse by cancerogenic virus. The cancer cell W-2K-11 was cultured by the following method.
(1) Preparation of culture medium
9.4 Gram of Eagle's MEM culture media (manufactured by Nissui Seiyaku K. K.) was dissolved in 900 ml. of distilled water and the solution was sterilized under high pressure at 120° C. for 15 minutes and cooled. 100 Ml. of calf serum and 3-5 ml. of 10% aqueous solution of sodium bicarbonate were added to the solution to adjust pH to 7.1-7.2. 10 Ml. of an aqueous solution of L-glutamine (2.92 g./100 ml.) filtered by a millipore filter was added just before the use of the solution as culture medium.
(2) Preparation of transplanted cell solution
The cancer cell W-2K-11 stored in a freezer at -80° C. was melted at room temperature and treated by a centrifugal separator at 670 g. for 5 minutes. The precipitated cell was dispersed in 50 ml. of the culture medium (1). The suspension was charged into Roux flask and cultured at 37° C. The multiplication of the cells was initiated and accomplished after 3 to 4 days. The cultured mixture was decanted and 10 ml. of 0.2% trypsin solution was added and the mixture was kept at room temperature for 2 to 3 minutes and the trypsin mixture was decanted and then, 50 ml. of the culture medium (1) was added to prepare a suspension of cells.
(3) Incubation of cells and addition of sample
1.8 Ml. of the suspension of cells (2) was charged into each Petri dish and incubated in a carbon dioxide gas incubator (5% of CO2; 95% of air) at 37° C. Twenty four hours after the initiation of the incubation, 0.2 ml. of each ethanol solution of each sample was added, and the incubation was continued. Forty eight hours after the addition of the sample, numbers of survival cells were counted under a microscopic observation and each percent inhibition of cell multiplication was calculated. [formula]

[1] = Acute toxicity, LD50 to mouse by intraperitoneal injection (Table 3); conditions: in vivo, ip
Procedure: LD50 of each sample to mouse was measured by intraperitoneal injection of each sample.

[2] = read-out: Percent inhibition (%)

| SMILES | inhibition at 1.2 µg/mL (cancer cell W-2K-11; concentration 1.2 μg/ml) | LD50 [1] | inhibition at 1 µg/mL (cancer cell W-2K-11; [2]) | inhibition at 10 µg/mL (cancer cell W-2K-11; concentration 10 μg/ml, read-out: Percent inhibition (%)) |
| --- | --- | --- | --- | --- |
| COC1=C2C[C@@H](C)C[C@H](OC)[C@H](O)[C@@H](C)/C=C(\C)[C@H](OC(N)=O)[C@@H](OC)/C=C\C=C(/C)C(=O)NC(=CC1=O)C2=O [Geldanamycin] | 61% | 15 mg/kg |  |  |
| COC1=C2CC(C)CC(OC)C(O)C(C)C3OC3(C)C(OC(N)=O)C(OC)C=CC=C(C)C(=O)NC(=CC1=O)C2=O (stereo not shown) [Example 45, 8,9-epoxy-Geldanamycin] |  | 240 mg/kg | 95% | 100% |
| CCNC1=C2CC(C)CC(OC)C(O)C(C)/C=C(\C)C(OC(N)=O)C(OC)/C=C\C=C(/C)C(=O)NC(=CC1=O)C2=O (stereo not shown) [Example 3] |  | 120 mg/kg | 90% |  |
